Laboratory results published in patent publication US20050256179A1, “Selective pharmacologic inhibition of protein trafficking and related methods of treating human diseases” (priority 2003, published 2005).
Values after ≈ are worked out from the molar mass of the structure shown. Like-named read-outs stand apart in the source and are kept apart here.

How the values were obtained:
[1] = tested on: Mannosidase II; assay: Mannosidase II immunocytochemistry; format: cell-based
Procedure: GS15, GS28, GPP130, and Mannosidase II, sparing the golgi structural protein GM-130 and having little effect on the Rab GTPase Rab6. Furthermore, these affects were most pronounced following overnight (16-20 hr) incubations with AVP 893, although some affects at early time points were seen. These conclusions were drawn from the western blot analysis (FIG. 29), as well as from the immunocytochemical studies (FIGS. 30-31).
Additional evidence that AVP 893 has unique activity against resident golgi proteins (e.g. Mannosidase II), was found using both shorter durations of drug exposure and immunocytochemistry instead of western blot analysis (FIG. 43).

[2] = tested on: HSV; assay: Guinea pig topical HSV model; format: in vivo; conditions: data not shown
Procedure: Representative viruses from families likely to utilize the golgi were tested. […] (data not shown).

[3] = tested on: HSV-2; assay: HSV-2 plaque formation in Vero cells; format: cell-based
Procedure: An important potential consequence of blocking normal vesicle movement between the ER and golgi is the inhibition of viral protein maturation and intracellular propagation. Most viruses rely on the classical ER-to-golgi pathway for assimilating its proteins and, ultimately, infectivity. Brefeldin A causes the accumulation of viral proteins in the ER-golgi. The capacity of AVP 893 to inhibit viral propagation was tested in vitro by infecting Vero cells with HSV-2 and observing the effect of increasing concentrations of drug (FIG. 44). Vero cells (1 million/ml) were cultured overnight and inoculated with about 150 PFU of live type 2 Herpes Virus (HSV-2, ATCC) about 1 hour after addition of AVP 893. After 48 hours, media was removed and the cells washed with saline and stained with Biological Plaque Stain for 20 min. One ml of water was added and the liquid removed before quantifying virus by enumerating PFU.

[4] = tested on: mouse spleen cells; assay: Proliferation of IL-4/anti-CD40 Ab-stimulated mouse spleen cells; format: cell-based; conditions: read-out: anti-proliferative potency
Procedure: BALB/c spleen cells were cultured for 20 hours in the presence of stimulus+/−AVP 893 (100 ng/ml) and harvested and prepared as described in FIG. 17. Stimulus conditions include: LPS (10 μg/ml), IL-4 (10 ng/ml) plus anti-CD40 Ab (100 ng/ml), PMA (10 ng/ml) plus ionomycin (100 nM), or Con A (5 μg/ml). […] This experiment was carried out as described for FIG. 21, except that different AVP compounds with high (AVP 893, 5 nM), medium (AVP 26297, 50 nM), and low (AVP 25630, 500 nM) anti-proliferative potency were tested and compared. AVP 893 was tested at 1, 10, and 100 ng/ml; AVP 26297 was tested at 1, 10, 100, and 1000 ng/ml; AVP 25630 was tested at 10, 100, and 1000 ng/ml.

[5] = tested on: MOLT-4; assay: Inhibition of tumor cell proliferation in vitro (SRB total protein); format: cell-based; conditions: Homo sapiens
Procedure: (§1) For a typical screening experiment, cells are inoculated into 96 well microtiter plates in 100 μl at plating densities ranging from 5,000 to 40,000 cells/well depending on the doubling time of individual cell lines. After cell inoculation, the microtiter plates are incubated at 37° C., 5% or 10% CO2—depending on the cell line and media—95% air and 100% relative humidity for 24 h prior to addition of experimental drugs. After 24 h, two plates of each cell line are fixed in situ with TCA, to represent a measurement of the cell population for each cell line at the time of drug addition. Following drug addition, the plates are incubated for an additional 48 h at 37° C., 5%/10% CO2, 95% air, and 100% relative humidity. For adherent cells, the assay is terminated by the addition of cold TCA. Cells are fixed in situ by the gentle addition of 50 μl of cold 50% (w/v) TCA (final concentration, 10% TCA) and incubated for 60 minutes at 4° C. The supernatant is discarded, and the plates are washed five times with tap water and air-dried. Sulforhodamine B (SRB) solution (10011) at 0.4% (w/v) in 1% acetic acid is added to each well, and plates are incubated for 10 minutes at room temperature. After staining, unbound dye is removed by washing five times with 1% acetic acid and the plates are air-dried. Bound stain is subsequently solubilized with 10 mM trizma base, and the absorbance is read on an automated plate reader at a wavelength of 515 nm. For suspension cells, the methodology is the same except that the assay is terminated by fixing settled cells at the bottom of the wells by gently adding 50 μl of 80% TCA (final concentration, 16% TCA). Using the seven absorbance measurements [time zero, control growth, and test growth in the presence of drug at the five concentration levels], the percentage growth is calculated at each of the drug concentrations levels.
(§2) Brefeldin A was tested by the NCI for inhibition of tumor cell proliferation in the 60-cell screen. The NCI 60-cell screen was performed essentially as described for FIG. 9. Data available from the NCI database for Brefeldin A was compared with more recent AVP 893 data. […] Several tumor cell lines were cultured in the presence of either AVP 893 or Brefeldin A for about 72 hours before assessing proliferation response by measuring total protein (SRB), as described for FIG. 9. The results of the head-to-head comparisons performed in-house also show substantial variation in the relative proliferative responses of cells to Brefeldin A and AVP 893 in vitro (TABLE 3).

[6] = tested on: OVCAR3; assay: as above; format: cell-based; conditions: Homo sapiens
Procedure: as §1, §2

[7] = tested on: Hs578T; assay: as above; format: cell-based; conditions: Homo sapiens, Hs-578T
Procedure: as §1, §2

[8] = tested on: HCC 1806; assay: as above; format: cell-based; conditions: Homo sapiens, HCC1806, 72 h, in-house head-to-head, about 72 hours, read-out: IC50
Procedure: as §1, §2

[9] = tested on: SW480; assay: as above; format: cell-based; conditions: Homo sapiens, column Avanir, read-out: IC50 (ng/ml), Avanir
Procedure: as §1, §2

[10] = tested on: NCI H-460; assay: as above; format: cell-based; conditions: Homo sapiens
Procedure: as §1, §2

[11] = column Avanir, read-out: IC50 (ng/ml), Avanir
[12] = column NCI, read-out: IC50 (ng/ml), NCI
[13] = in-house head-to-head, about 72 hours, SRB, read-out: IC50

Q: What does the source list for `O=C(Nc1ccc(-c2nc3cc(NC(=O)C4CCCCC4)ccc3[nH]2)cc1)C1CCCCC1` [AVP 893]?
A: Mannosidase II staining pattern ([1]; 1 hr of treatment, immunocytochemistry): no apparent effect; Mannosidase II in golgi ([1]; after 4 hrs of application): little to no discernible amount of the enzyme remaining after 4 hrs; viral activity in vivo [2]: may inhibit viral activity in vivo; plaque formation ([3]; HSV-2, 48 hours): suppressed plaque formation at all concentrations tested; concentration giving total block of plaque formation ([3]; about 150 PFU HSV-2, 48 hours): 300 ng/mL; IC50 [4]: 5 nM; IC50 [5, 11]: 0.001 ng/mL (≈ 0.00225 nM); IC50 [5, 12]: < 10 ng/mL; IC50 [5, 13]: 30 ng/mL (≈ 67.5 nM); IC50 ([6]; OVCAR-3, column Avanir, read-out: IC50 (ng/ml), Avanir): 200 ng/mL (≈ 450 nM); IC50 ([6]; OVCAR-3, column NCI, read-out: IC50 (ng/ml), NCI): 1000 ng/mL (≈ 2250 nM); IC50 [7, 11]: 2 ng/mL (≈ 4.5 nM); IC50 [7, 12]: < 10 ng/mL; IC50 [7, 13]: < 1 ng/mL; IC50 [8]: 4 ng/mL (≈ 9 nM); IC50 [9]: 1500 ng/mL (≈ 3370 nM); IC50 ([10]; NCI-H460, column Avanir, read-out: IC50 (ng/ml), Avanir): > 2000 ng/mL; IC50 ([10]; NCI-H460, column NCI, read-out: IC50 (ng/ml), NCI): 400 ng/mL (≈ 900 nM); IC50 ([10]; NCI-H460, in-house head-to-head, about 72 hours, SRB, read-out: IC50): > 3000 ng/mL
